In ChEMBL document CHEMBL1821593, “Synthesis and α-Glucosidase II inhibitory activity of valienamine pseudodisaccharides relevant to N-glycan biosynthesis” (Bioorg Med Chem Lett, 2011) one finds IC50 and inhibition data, which are given here for eight compounds.

Assay [1] can be described thus: Inhibition of rat liver Alpha-glucosidase II using Glc1Man5GlcNAc1 substrate after 90 mins by NP-HPLC analysis.
Assay [2] in a line: Inhibition of rat liver Alpha-glucosidase II using Glc2Man7GlcNAc2 substrate after 2 hrs by NP-HPLC analysis.
Assay [3] concerns HL-60. The assay can be described thus: Inhibition of Alpha-glucosidase II in human HL60 cells assessed as Glc1Man4GlcNAc1 formation using 2-Anthranilic acid labelled NB-DNJ substrate by HPLC analysis. It is filed as cell-based.
For assay [4], the species on record is Rattus norvegicus. The assay can be described thus: Inhibition of rat liver Alpha-glucosidase II upto 500 uM using Glc1Man5GlcNAc1 substrate after 90 mins by NP-HPLC analysis.
The species entered for assay [5] is Rattus norvegicus. Briefly: Inhibition of rat liver Alpha-glucosidase II upto 500 uM using Glc2Man7GlcNAc2 substrate after 2 hrs by NP-HPLC analysis.
Assay [6] has as its system HL-60. The assay can be described thus: Inhibition of Alpha-glucosidase II in human HL60 cells using 2-Anthranilic acid labelled NB-DNJ substrate after 24 hrs by HPLC analysis relative to control. It is filed as cell-based.
The nature of assay [7]: Inhibition of rat liver Alpha-glucosidase II.
The species named for assay [8] is Rattus norvegicus. Briefly: (§1) Inhibition of rat liver Alpha-glucosidase II using p-nitrophenyl alpha D-glucopyranoside substrate.
Assay [9] is filed under the species Rattus norvegicus. Briefly: (§2) Inhibition of rat liver Alpha-glucosidase I using Glc3Man9GlcNAc2 substrate.
Assay [10] in a line: as §1.
The subject of assay [11] is HL-60. The assay can be described thus: Inhibition of Alpha-glucosidase I in human HL60 cells using Glc3Man9GlcNAc2 substrate after 24 hrs by HPLC analysis. It is filed as cell-based.
The nature of assay [12]: as §2.

Active and inactive are the calls of the source. The rule behind the calls is not given here.

With `CO[C@H]1O[C@H](CO)[C@@H](O)[C@H](N[C@H]2C=C(CO)[C@@H](O)[C@H](O)[C@H]2O)[C@H]1O`, the values for the concentration for half-maximal inhibition (IC50) in assay [1] and in assay [2] were 143 µM and 72 µM, respectively. The inhibition result in the assay with HL-60 [3] was “Active”.
With `CO[C@H]1O[C@H](CN[C@@H]2C=C(CO)[C@@H](O)[C@H](O)[C@H]2O)[C@@H](O)[C@H](O)[C@H]1O`, the inhibition entry in the assay listed under Rattus norvegicus [4], in the assay listed under Rattus norvegicus [5] and in the assay on HL-60 [6] was “inactive” each time.
For `CO[C@H]1O[C@H](CN[C@H]2C=C(CO)[C@@H](O)[C@H](O)[C@H]2O)[C@@H](O)[C@H](O)[C@H]1O`, the inhibition result in the assay filed under Rattus norvegicus [4], in the assay listed under Rattus norvegicus [5] and with HL-60 [6] was “inactive” each time.
The compound `CCCCN1C[C@H](O)[C@@H](O)[C@H](O)[C@H]1CO` registered a half-inhibitory concentration (IC50) in assay [7] of 4.6 µM.
Regarding `CO[C@H]1O[C@H](CO)[C@@H](O)[C@H](N[C@H]2C=C(CO)[C@@H](O)[C@H](O)[C@H]2O)[C@@H]1O`, half-maximal inhibition in assay [1] (IC50) required 236 µM. Moreover, in the assay on HL-60 [3], the inhibition result is “Active”. In addition, the inhibition entry in the assay filed under Rattus norvegicus [5] is “inactive”.
For the compound `CO[C@H]1O[C@H](CO)[C@@H](O)[C@H](O)[C@H]1N[C@H]1C=C(CO)[C@@H](O)[C@H](O)[C@H]1O`, the inhibition result in the assay listed under Rattus norvegicus [8] and in the assay listed under Rattus norvegicus [9] was “inactive” throughout.
Regarding `N[C@H]1C=C(CO)[C@@H](O)[C@H](O)[C@H]1O` [VALIENAMINE], the IC50 in [10] turned out to be 1000 µM; in assay [12], 780 µM. In addition, the inhibition result in the assay on HL-60 [11] is “inactive”.
For the compound `CO[C@H]1O[C@H](CO)[C@@H](O)[C@H](N[C@H]2[C@H](O)[C@H](O)[C@@H](O)[C@H](O)[C@H]2O)[C@H]1O`, the inhibition result in the assay listed under Rattus norvegicus [8] and in the assay listed under Rattus norvegicus [9] was “inactive” in each case.

Broadly, the IC50 is the point on the concentration scale where inhibition reaches its midpoint.
